pIC50: −log10 of the molar value. Active and inactive are the calls of the source. The rule behind the calls is not given here.
What was measured:
HT-22 [1] = assay: Induction of apoptosis in glutamate-induced mouse HT-22 cells assessed as reduction in C-caspase 3 activation at 10 to 20 uM incubated for 12 hrs by immunofluorescence analysis; format: functional, cell-based; details: dose 10-20 µM
Cortical neurone [2] = assay: Neuroprotective activity against OGD/R induced C57BL/6J mouse Primary cortical neuron assessed as increase in BCL-2 expression at 10 to 20 uM incubated for 12 hrs by immunofluorescence analysis; format: functional, cell-based; details: dose 10-20 µM
Cortical neurone [3] = assay: Neuroprotective activity against OGD/R induced C57BL/6J mouse Primary cortical neuron assessed as decrease in C-caspase3 expression at 10 to 20 uM incubated for 12 hrs by immunofluorescence analysis; format: functional, cell-based; details: dose 10-20 µM
Cortical neurone [4] = assay: Neuroprotective activity against OGD/R induced C57BL/6J mouse Primary cortical neuron assessed as alleviation in neuronal apoptosis at 10 to 20 uM incubated for 12 hrs by immunofluorescence analysis; format: functional, cell-based; details: dose 10-20 µM
Cortical neurone [5] = assay: Neuroprotective activity against OGD/R induced C57BL/6J mouse Primary cortical neuron assessed as alleviation in neuronal apoptosis at 10 to 20 uM incubated for 12 hrs by TUNEL staining based analysis; format: functional, cell-based; details: dose 10-20 µM
[6] = molecular target: T1, Tyrosine-protein phosphatase non-receptor type 1 (Homo sapiens, UniProt P18031); assay: Inhibition of PTP1B (unknown origin)
T1 sequence (P18031 whole entry): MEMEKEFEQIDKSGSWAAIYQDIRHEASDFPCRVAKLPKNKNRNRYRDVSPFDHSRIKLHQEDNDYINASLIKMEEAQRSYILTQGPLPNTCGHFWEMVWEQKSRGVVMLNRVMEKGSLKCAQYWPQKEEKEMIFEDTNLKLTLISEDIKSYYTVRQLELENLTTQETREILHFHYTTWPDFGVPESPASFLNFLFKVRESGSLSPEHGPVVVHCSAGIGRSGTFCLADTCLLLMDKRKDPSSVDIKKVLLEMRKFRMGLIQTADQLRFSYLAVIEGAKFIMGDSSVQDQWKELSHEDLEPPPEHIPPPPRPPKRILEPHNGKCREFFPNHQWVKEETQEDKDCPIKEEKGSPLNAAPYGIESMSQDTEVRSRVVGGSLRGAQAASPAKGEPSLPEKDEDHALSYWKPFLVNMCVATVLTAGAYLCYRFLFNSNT

HT-22 [7] = assay: Neuroprotective activity against glutamate-induced cytotoxicity in mouse HT-22 cells at 10 to 20 uM assessed as cell death measured after 14 hrs by CCK8 assay; format: functional, cell-based; details: dose 10-20 µM
HT-22 [8] = assay: Induction of apoptosis in glutamate-induced mouse HT-22 cells assessed as early apoptotic cells at 10 uM incubated for 12 hrs by Annexin V/PI staining based flow cytometry analysis (reference value: 1.23 %); format: functional
HT-22 [9] = assay: Anti-apoptotic activity in glutamate-induced mouse HT-22 cells assessed as increase in BCL-2 expression at 10 to 20 uM incubated for 12 hrs by Western blot analysis; format: functional, cell-based; details: dose 10-20 µM
PC-12 = assay: Cytotoxicity against PC-12 cells at 40 uM incubated for 48 hrs by CCK-8 assay; format: toxicity, cell-based; details: rat, pc-12, 48 h
HT-22 [10] = assay: Neuroprotective activity against glutamate-induced cytotoxicity in mouse HT-22 cells at 10 to 20 uM assessed as increase in cell viability measured after 14 hrs by CCK8 assay; format: functional, cell-based; details: dose 10-20 µM
HT-22 [11] = assay: Anti-apoptotic activity in glutamate-induced mouse HT-22 cells assessed as decrease in BAX expression at 10 to 20 uM incubated for 12 hrs by immunofluorescence analysis; format: functional, cell-based; details: dose 10-20 µM
HT-22 [12] = assay: Anti-apoptotic activity in glutamate-induced mouse HT-22 cells assessed as decrease in BAX expression at 10 to 20 uM incubated for 12 hrs by Western blot analysis; format: functional, cell-based; details: dose 10-20 µM
HT-22 [13] = assay: Anti-apoptotic activity in glutamate-induced mouse HT-22 cells assessed as increase in BCL-2 expression at 10 to 20 uM incubated for 12 hrs by immunofluorescence analysis; format: functional, cell-based; details: dose 10-20 µM
HT-22 [14] = assay: Effect on STEP expression in mouse HT-22 cells by Western blot analysis; format: functional, cell-based
[15] = molecular target: T2, Receptor-type tyrosine-protein phosphatase O (Homo sapiens, UniProt Q16827); assay: Inhibition of PTPRO (unknown origin)
T2 sequence (Q16827 whole entry): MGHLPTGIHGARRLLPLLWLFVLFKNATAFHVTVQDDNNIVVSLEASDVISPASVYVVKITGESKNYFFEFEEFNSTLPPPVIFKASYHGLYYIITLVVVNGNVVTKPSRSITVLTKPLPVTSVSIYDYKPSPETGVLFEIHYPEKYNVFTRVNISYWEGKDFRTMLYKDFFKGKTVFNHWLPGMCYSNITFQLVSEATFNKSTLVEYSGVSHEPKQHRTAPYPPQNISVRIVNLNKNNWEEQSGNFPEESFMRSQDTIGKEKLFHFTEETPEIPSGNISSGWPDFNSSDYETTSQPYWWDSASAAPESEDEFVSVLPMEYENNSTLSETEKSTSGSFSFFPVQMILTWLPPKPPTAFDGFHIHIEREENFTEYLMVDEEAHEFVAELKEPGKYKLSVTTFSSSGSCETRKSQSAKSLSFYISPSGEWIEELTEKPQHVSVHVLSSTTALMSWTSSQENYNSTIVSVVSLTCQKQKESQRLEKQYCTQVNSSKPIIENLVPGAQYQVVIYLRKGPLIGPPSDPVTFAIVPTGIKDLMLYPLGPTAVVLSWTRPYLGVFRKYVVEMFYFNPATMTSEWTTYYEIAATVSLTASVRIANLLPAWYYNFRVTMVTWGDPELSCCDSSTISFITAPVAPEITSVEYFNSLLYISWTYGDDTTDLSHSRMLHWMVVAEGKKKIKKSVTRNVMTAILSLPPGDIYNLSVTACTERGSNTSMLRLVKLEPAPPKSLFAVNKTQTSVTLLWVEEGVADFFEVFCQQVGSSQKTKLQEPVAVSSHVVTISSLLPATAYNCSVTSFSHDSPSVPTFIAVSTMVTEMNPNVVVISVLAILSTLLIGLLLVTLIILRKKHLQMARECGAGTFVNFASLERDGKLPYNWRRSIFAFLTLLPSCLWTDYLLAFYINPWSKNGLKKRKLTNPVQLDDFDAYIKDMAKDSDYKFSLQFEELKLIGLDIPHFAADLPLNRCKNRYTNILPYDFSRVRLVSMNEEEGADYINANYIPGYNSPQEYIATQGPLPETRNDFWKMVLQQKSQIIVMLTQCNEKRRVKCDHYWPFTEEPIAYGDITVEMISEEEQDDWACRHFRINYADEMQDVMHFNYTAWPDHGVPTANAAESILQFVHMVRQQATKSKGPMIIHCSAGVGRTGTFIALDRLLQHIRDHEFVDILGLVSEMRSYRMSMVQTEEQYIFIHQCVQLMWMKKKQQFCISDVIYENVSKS

HT-22 [16] = assay: Induction of apoptosis in glutamate-induced mouse HT-22 cells assessed as late apoptotic cells at 10 uM incubated for 12 hrs by Annexin V/PI staining based flow cytometry analysis (reference value: 2.55 %); format: functional
HT-22 [17] = assay: Induction of apoptosis in glutamate-induced mouse HT-22 cells assessed as early apoptotic cells at 20 uM incubated for 12 hrs by Annexin V/PI staining based flow cytometry analysis (reference value: 1.23 %); format: functional
HT-22 [18] = assay: […] glutamate-induced ROS accumulation in mouse HT-22 cells assessed as reduction in fluorescent intensity at 10 to 20 uM incubated for 14 hrs by DCFH-DA staining based inverted fluorescence microscopic analysis; format: functional, cell-based; details: dose 10-20 µM
HT-22 [19] = assay: Cytotoxicity against mouse HT-22 cells assessed as effect on cell viability at 40 uM incubated for 48 hrs by CCK-8 assay; format: toxicity, cell-based; details: ht-22, 48 h
HT-22 [20] = assay: Induction of apoptosis in glutamate-induced mouse HT-22 cells assessed as viable cells at 20 uM incubated for 12 hrs by Annexin V/PI staining based flow cytometry analysis (reference value: 92.6%); format: functional; details: read-out: Activity
HT-22 [21] = assay: Induction of apoptosis in glutamate-induced mouse HT-22 cells assessed as viable cells at 10 uM incubated for 12 hrs by Annexin V/PI staining based flow cytometry analysis (reference value: 92.6%); format: functional; details: read-out: Activity
HT-22 [22] = assay: Induction of apoptosis in glutamate-induced mouse HT-22 cells assessed as reduction in C-caspase 3 activation at 10 to 20 uM incubated for 12 hrs by Western blot analysis; format: functional, cell-based; details: dose 10-20 µM
[23] = molecular target: T3, Tyrosine-protein phosphatase non-receptor type 22 (Homo sapiens, UniProt Q9Y2R2); assay: Inhibition of LYP (unknown origin)
T3 sequence (Q9Y2R2 whole entry): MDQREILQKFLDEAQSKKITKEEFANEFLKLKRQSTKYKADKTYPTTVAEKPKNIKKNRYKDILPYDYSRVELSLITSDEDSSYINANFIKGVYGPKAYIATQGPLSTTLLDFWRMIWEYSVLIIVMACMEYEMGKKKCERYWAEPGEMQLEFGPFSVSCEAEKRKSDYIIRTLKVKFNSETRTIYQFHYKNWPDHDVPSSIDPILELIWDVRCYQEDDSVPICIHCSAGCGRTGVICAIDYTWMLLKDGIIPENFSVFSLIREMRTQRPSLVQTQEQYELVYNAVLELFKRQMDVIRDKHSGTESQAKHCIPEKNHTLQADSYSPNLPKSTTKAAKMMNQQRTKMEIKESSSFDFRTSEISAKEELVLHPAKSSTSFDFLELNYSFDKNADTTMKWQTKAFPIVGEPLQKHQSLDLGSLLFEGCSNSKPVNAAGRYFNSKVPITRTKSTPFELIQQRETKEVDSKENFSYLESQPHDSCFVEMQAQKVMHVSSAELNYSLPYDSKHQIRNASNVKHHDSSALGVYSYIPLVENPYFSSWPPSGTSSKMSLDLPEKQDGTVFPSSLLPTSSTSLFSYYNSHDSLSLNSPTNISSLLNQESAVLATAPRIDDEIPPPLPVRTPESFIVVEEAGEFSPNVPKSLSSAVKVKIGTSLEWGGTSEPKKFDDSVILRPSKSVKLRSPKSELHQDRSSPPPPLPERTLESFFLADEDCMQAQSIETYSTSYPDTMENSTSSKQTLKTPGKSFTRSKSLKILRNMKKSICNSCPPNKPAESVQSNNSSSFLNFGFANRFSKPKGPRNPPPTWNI

HT-22 [24] = assay: Induction of apoptosis in glutamate-induced mouse HT-22 cells assessed as necrotic cells at 20 uM incubated for 12 hrs by Annexin V/PI staining based flow cytometry analysis (reference value: 3.63 %); format: functional
HT-22 [25] = assay: Induction of apoptosis in glutamate-induced mouse HT-22 cells assessed as late apoptotic cells at 20 uM incubated for 12 hrs by Annexin V/PI staining based flow cytometry analysis (reference value: 2.55 %); format: functional
Cortical neurone [26] = assay: Neuroprotective activity against OGD/R induced C57BL/6J mouse Primary cortical neuron assessed as decrease in BAX expression at 10 to 20 uM incubated for 12 hrs by immunofluorescence analysis; format: functional, cell-based; details: dose 10-20 µM
HT-22 [27] = assay: Induction of apoptosis in glutamate-induced mouse HT-22 cells assessed as necrotic cells at 10 uM incubated for 12 hrs by Annexin V/PI staining based flow cytometry analysis (reference value: 3.63 %); format: functional
[28] = molecular target: T4, Tyrosine-protein phosphatase non-receptor type 2 (Homo sapiens, UniProt P17706); assay: Inhibition of TCPTP (unknown origin)
T4 sequence (P17706 whole entry): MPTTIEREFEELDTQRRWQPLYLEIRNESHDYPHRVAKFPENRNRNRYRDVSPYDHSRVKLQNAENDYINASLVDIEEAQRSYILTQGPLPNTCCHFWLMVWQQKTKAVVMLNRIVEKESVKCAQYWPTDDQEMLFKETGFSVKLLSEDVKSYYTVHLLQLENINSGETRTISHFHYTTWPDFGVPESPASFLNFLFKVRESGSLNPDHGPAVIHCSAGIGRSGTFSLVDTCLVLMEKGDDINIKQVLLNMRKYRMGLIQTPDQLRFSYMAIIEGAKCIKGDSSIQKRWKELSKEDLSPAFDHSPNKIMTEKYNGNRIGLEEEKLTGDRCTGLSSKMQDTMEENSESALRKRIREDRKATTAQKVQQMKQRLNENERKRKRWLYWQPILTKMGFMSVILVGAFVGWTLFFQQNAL

pIC50 [6]: 5.05
pIC50 [15]: 4.84
pIC50 [23]: 4.95
pIC50 [28]: 4.36
SMILES: O=C(O)c1ccc(-c2ccc(/C=C3\C(=O)c4cccc([N+](=O)[O-])c4C3=O)o2)c(Cl)c1
Activity (HT-22 [1]): Active
Activity (Cortical neurone [2]): Active
Activity (Cortical neurone [3]): Active
Activity (Cortical neurone [4]): Active
Activity (Cortical neurone [5]): Active
Activity (HT-22 [7]): Active
Activity (HT-22 [8]): 3.15%
Activity (HT-22 [9]): Active
Activity (PC-12): Non-toxic
Activity (HT-22 [10]): Active
Activity (HT-22 [11]): Active
Activity (HT-22 [12]): Active
Activity (HT-22 [13]): Active
Activity (HT-22 [14]): Active
Activity (HT-22 [16]): 4.02%
Activity (HT-22 [17]): 2.02%
Activity (HT-22 [18]): Active
Activity (HT-22 [19]): Non-toxic
viability at 20 µM (HT-22 [20]): 93.2%
viability at 10 µM (HT-22 [21]): 91.9%
Activity (HT-22 [22]): Active
Activity (HT-22 [24]): 1.26%
Activity (HT-22 [25]): 3.57%
Activity (Cortical neurone [26]): Active
Activity (HT-22 [27]): 0.92%
